Test results published in ChEMBL document CHEMBL2406934, “Orally available and efficacious α4β1/α4β7 integrin inhibitors” (Bioorg Med Chem Lett, 2013).
One block for each compound: values may come before it. Activity calls are given as the source filed them. The rule behind the calls is not given here.

Columns and labels:
[1] = biological target: T1, Integrin alpha-4/beta-1 (Homo sapiens, UniProt P05556+P13612); test: Inhibition of alpha4beta1 integrin-mediated human jurkat cell adhesion to fibronectin in presence of human serum albumin; type: protein-complex assay
T1 sequence (P05556 whole entry): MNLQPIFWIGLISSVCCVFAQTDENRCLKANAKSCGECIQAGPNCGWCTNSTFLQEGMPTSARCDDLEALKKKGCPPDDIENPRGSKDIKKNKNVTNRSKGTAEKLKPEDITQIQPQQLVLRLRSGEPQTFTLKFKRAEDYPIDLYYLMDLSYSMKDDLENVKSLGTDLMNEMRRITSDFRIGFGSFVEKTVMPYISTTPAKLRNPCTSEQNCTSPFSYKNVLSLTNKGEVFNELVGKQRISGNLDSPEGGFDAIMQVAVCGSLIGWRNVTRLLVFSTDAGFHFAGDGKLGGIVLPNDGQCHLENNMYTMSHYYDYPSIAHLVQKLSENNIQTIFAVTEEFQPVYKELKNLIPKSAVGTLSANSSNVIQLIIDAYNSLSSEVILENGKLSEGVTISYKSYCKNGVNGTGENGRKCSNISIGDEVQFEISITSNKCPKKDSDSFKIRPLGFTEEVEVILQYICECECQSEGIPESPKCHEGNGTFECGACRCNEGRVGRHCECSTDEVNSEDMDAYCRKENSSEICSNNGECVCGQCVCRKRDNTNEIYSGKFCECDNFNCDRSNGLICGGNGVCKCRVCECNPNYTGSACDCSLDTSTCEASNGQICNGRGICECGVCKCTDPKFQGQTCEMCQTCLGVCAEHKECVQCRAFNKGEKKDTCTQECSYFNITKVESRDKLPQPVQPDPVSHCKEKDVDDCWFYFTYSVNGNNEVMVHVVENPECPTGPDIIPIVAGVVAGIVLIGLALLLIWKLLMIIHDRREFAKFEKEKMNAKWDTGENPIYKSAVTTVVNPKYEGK
T1 sequence (P13612 whole entry): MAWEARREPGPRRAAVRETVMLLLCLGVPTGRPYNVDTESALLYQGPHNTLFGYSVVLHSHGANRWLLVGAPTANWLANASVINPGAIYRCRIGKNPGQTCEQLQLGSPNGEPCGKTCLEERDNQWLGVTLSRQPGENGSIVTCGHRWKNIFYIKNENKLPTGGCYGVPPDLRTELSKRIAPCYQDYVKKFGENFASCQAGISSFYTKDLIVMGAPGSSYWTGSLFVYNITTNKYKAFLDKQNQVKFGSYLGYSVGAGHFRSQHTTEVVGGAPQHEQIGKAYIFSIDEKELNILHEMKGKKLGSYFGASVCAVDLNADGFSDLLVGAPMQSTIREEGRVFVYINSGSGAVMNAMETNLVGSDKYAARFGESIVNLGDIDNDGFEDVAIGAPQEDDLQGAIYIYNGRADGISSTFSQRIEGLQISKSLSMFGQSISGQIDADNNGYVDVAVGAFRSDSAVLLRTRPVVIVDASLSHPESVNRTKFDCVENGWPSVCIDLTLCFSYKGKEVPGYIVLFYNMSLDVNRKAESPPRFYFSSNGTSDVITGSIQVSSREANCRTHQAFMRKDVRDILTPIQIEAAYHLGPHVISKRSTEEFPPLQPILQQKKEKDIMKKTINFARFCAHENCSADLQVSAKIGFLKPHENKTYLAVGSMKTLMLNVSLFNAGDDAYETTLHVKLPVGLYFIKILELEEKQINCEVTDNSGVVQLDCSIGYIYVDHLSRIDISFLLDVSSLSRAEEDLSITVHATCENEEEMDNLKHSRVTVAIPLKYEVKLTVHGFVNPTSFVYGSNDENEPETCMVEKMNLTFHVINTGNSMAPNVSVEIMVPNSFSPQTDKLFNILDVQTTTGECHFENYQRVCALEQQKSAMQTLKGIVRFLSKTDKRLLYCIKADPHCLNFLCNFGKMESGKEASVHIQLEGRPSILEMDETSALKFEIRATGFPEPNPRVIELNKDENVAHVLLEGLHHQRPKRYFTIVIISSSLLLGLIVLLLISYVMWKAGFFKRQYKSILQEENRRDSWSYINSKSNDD

[2] = biological target: T1, Integrin alpha-4/beta-1; test: Inhibition of alpha4beta1 integrin-mediated human jurkat cell adhesion to fibronectin in absence of human serum albumin; type: protein-complex assay
[3] = AUC (0 to infinity) in po dosed rat; type: ADME, organism-based; parameters: route oral, time infinity; conditions: plasma
[4] = Cmax in po dosed rat; type: ADME, organism-based; parameters: route oral; conditions: in vivo
[5] = test system: Rattus norvegicus; test: Toxicity in rat assessed as weight gain at 1 to 1000 mg/kg, po after 10 days; type: organism-based; parameters: dose 1-1000 mg/kg, route oral; conditions: in vivo, 240 h
[6] = Apparent volume of distribution in iv dosed rat; type: ADME, organism-based; conditions: in vivo, read-out: Vz
[7] = Plasma concentration in rat at 30 mg/kg, po administered for 10 days measured 24 hrs post last dose; type: ADME, organism-based; parameters: dose 30 mg/kg, route oral
[8] = AUC (0 to infinity) in rat at 10 mg/kg, po; type: ADME, organism-based; parameters: time infinity, dose 10 mg/kg, route oral; conditions: plasma
[9] = Plasma concentration in rat at 10 mg/kg, po after 24 hrs; type: ADME, organism-based; parameters: dose 10 mg/kg, route oral
[10] = AUC (0 to infinity) in rat at 3 mg/kg, po; type: ADME, organism-based; parameters: time infinity, dose 3 mg/kg, route oral; conditions: plasma
[11] = AUC (0 to infinity) in rat at 1 mg/kg, po; type: ADME, organism-based; parameters: time infinity, dose 1 mg/kg, route oral; conditions: plasma
[12] = Cmax in rat at 100 mg/kg, po; type: ADME, organism-based; parameters: dose 100 mg/kg, route oral; conditions: in vivo
[13] = Volume of distribution at steady state in iv dosed rat; type: ADME, organism-based; conditions: in vivo, read-out: Vdss
[14] = Clearance in iv dosed rat; type: ADME, organism-based; conditions: in vivo
[15] = Plasma concentration in rat at 1 mg/kg, po after 24 hrs; type: ADME, organism-based; parameters: dose 1 mg/kg, route oral
[16] = Plasma concentration in rat at 300 mg/kg, po after 24 hrs; type: ADME, organism-based; parameters: dose 300 mg/kg, route oral
[17] = test system: Cavia porcellus; test: Reduction on allergenic encephalomyelitis guinea pig EAE model at 300 mg/kg, po bid; type: functional, organism-based; parameters: dose 300 mg/kg
[18] = AUC (0 to infinity) in rat at 300 mg/kg, po; type: ADME, organism-based; parameters: time infinity, dose 300 mg/kg, route oral; conditions: plasma
[19] = AUC (0 to infinity) in rat at 100 mg/kg, po; type: ADME, organism-based; parameters: time infinity, dose 100 mg/kg, route oral; conditions: plasma
[20] = Cmax in rat at 1000 mg/kg, po; type: ADME, organism-based; parameters: dose 1000 mg/kg, route oral; conditions: in vivo
[21] = test system: Liver microsomes; test: Drug metabolism in rat liver microsomes assessed as (S)-2-(2-(ethylamino)-5-(N-isopropylmethylsulfonamido)pyrimidin-4-ylamino)-3-(4-(pyrrolidine-1-carbonyloxy)phenyl)propanoic acid synthesis; type: ADME, Microsome
[22] = Plasma concentration in rat at 10 mg/kg, po administered for 10 days measured 24 hrs post last dose; type: ADME, organism-based; parameters: dose 10 mg/kg, route oral
[23] = Plasma concentration in rat at 300 mg/kg, po administered for 10 days measured 24 hrs post last dose; type: ADME, organism-based; parameters: dose 300 mg/kg, route oral
[24] = Cmax in rat at 300 mg/kg, po; type: ADME, organism-based; parameters: dose 300 mg/kg, route oral; conditions: in vivo
[25] = Plasma concentration in rat at 3 mg/kg, po after 24 hrs; type: ADME, organism-based; parameters: dose 3 mg/kg, route oral
[26] = Plasma concentration in rat at 1000 mg/kg, po after 24 hrs; type: ADME, organism-based; parameters: dose 1000 mg/kg, route oral
[27] = Plasma concentration in rat at 100 mg/kg, po after 24 hrs; type: ADME, organism-based; parameters: dose 100 mg/kg, route oral
[28] = Cmax in rat at 3 mg/kg, po; type: ADME, organism-based; parameters: dose 3 mg/kg, route oral; conditions: in vivo
[29] = AUC (0 to infinity) in rat at 30 mg/kg, po; type: ADME, organism-based; parameters: time infinity, dose 30 mg/kg, route oral; conditions: plasma
[30] = Plasma concentration in rat at 1000 mg/kg, po administered for 10 days measured 24 hrs post last dose; type: ADME, organism-based; parameters: dose 1000 mg/kg, route oral
[31] = Half life in iv dosed rat; type: ADME, organism-based; conditions: in vivo
[32] = Cmax in rat at 10 mg/kg, po; type: ADME, organism-based; parameters: dose 10 mg/kg, route oral; conditions: in vivo
[33] = Plasma concentration in HLA-B27 rat at 100 mg/kg, po bid administered for 11 days measured 12 hrs post last dose; type: ADME, organism-based; parameters: dose 100 mg/kg, route oral
[34] = Plasma concentration in rat at 100 mg/kg, po administered for 10 days measured 24 hrs post last dose; type: ADME, organism-based; parameters: dose 100 mg/kg, route oral
[35] = Cmax in rat at 30 mg/kg, po; type: ADME, organism-based; parameters: dose 30 mg/kg, route oral; conditions: in vivo
[36] = Plasma concentration in rat at 30 mg/kg, po after 24 hrs; type: ADME, organism-based; parameters: dose 30 mg/kg, route oral
[37] = test system: Liver microsomes; test: Drug metabolism in human liver microsomes assessed as (S)-2-(2-(ethylamino)-5-(N-isopropylmethylsulfonamido)pyrimidin-4-ylamino)-3-(4-(pyrrolidine-1-carbonyloxy)phenyl)propanoic acid synthesis; type: ADME, Microsome
[38] = Oral bioavailability in rat; type: ADME, organism-based; conditions: in vivo
[39] = Cmax in rat at 1 mg/kg, po; type: ADME, organism-based; parameters: dose 1 mg/kg, route oral; conditions: in vivo
[40] = AUC (0 to infinity) in rat at 1000 mg/kg, po; type: ADME, organism-based; parameters: time infinity, dose 1000 mg/kg, route oral; conditions: plasma

IC50 [1]: 4820 nM
IC50 [2]: 23.3 nM
AUC(0-inf) [3]: 6.8 µg·h/mL
Cmax [4]: 1400 ng/mL
Structure (SMILES): CCNc1ncc(N(C(C)C)S(C)(=O)=O)c(N[C@@H](Cc2ccc(OC(=O)N3CCCC3)cc2)C(=O)O)n1

Vd [6]: 0.108 L/kg
concentration at 24 h [7]: 13000 ng/mL
AUC(0-inf) [8]: 76 µg·h/mL
concentration at 24 h [9]: 1010 ng/mL
AUC(0-inf) [10]: 24.2 µg·h/mL
AUC(0-inf) [11]: 5.9 µg·h/mL
Cmax [12]: 105000 ng/mL
Vd [13]: 0.068 L/kg
clearance [14]: 0.172 mL/min/kg
concentration at 24 h [15]: 110 ng/mL
concentration at 24 h [16]: 46200 ng/mL
AUC(0-inf) [18]: 2980 µg·h/mL
AUC(0-inf) [19]: 1260 µg·h/mL
Cmax [20]: 214000 ng/mL
Drug metabolism [21]: Active
concentration at 24 h [22]: 3380 ng/mL
concentration at 24 h [23]: 43100 ng/mL
Cmax [24]: 153000 ng/mL
concentration at 24 h [25]: 358 ng/mL
concentration at 24 h [26]: 71400 ng/mL
concentration at 24 h [27]: 13600 ng/mL
Cmax [28]: 1100 ng/mL
AUC(0-inf) [29]: 275 µg·h/mL
concentration at 24 h [30]: 100000 ng/mL
half-life [31]: 7.3 h
Cmax [32]: 3600 ng/mL
concentration at 12 h [33]: 2500 ng/mL
concentration at 24 h [34]: 28500 ng/mL
Cmax [35]: 17400 ng/mL
concentration at 24 h [36]: 4250 ng/mL
Drug metabolism [37]: Active
bioavailability [38]: 17%
Cmax [39]: 230 ng/mL
AUC(0-inf) [40]: 4480 µg·h/mL
AUC(0-inf) [3]: 221 µg·h/mL
Cmax [4]: 16500 ng/mL
Structure (SMILES): CCN(CC)c1ncc(N(C(C)C)S(C)(=O)=O)c(N[C@@H](Cc2ccc(OC(=O)N3CCCC3)cc2)C(=O)O)n1
Activity [5]: Non-toxic
Activity [17]: inactive
